Source: article PMC8330735 (Journal of Enzyme Inhibition and Medicinal Chemistry, 2021)

Tests used:
[1] = system: carrageenan-induced rat paw oedema; test: Carrageenan-induced rat paw oedema test; format: in vivo; conditions: compounds and celecoxib 50 mg/kg, ibuprofen and indomethacin 20 mg/kg; for Mean oedema thickness 1h: 1 h after carrageenan; for Mean oedema thickness 1h / Mean oedema thickness 2h / Mean oedema thickness 3h / Mean oedema thickness 4h / Mean oedema thickness 5h / Mean oedema thickness 24h / Mean oedema thickness 0h: mean ± SEM, n = 5; for Mean oedema thickness 2h: 2 h after carrageenan; for Mean oedema thickness 3h: 3 h after carrageenan; for Mean oedema thickness 4h: 4 h after carrageenan; for Mean oedema thickness 5h: 5 h after carrageenan; for Mean oedema thickness 24h: 24 h after carrageenan; for Mean oedema thickness 0h: before carrageenan (0 h); for Average oedema inhibition%: from area under the curve of all time points
[2] = system: acetic acid-induced writhing in mice; test: Acetic acid induced writhing test; format: in vivo; conditions: 50 mg/kg p.o.; for Number of writhes: 1 h prior acetic acid i.p., within 30 min
Protocol: The number of writhes, manifested as extension of hind legs, constriction of abdomen, or turning of trunk was recorded within 30 min.

[3] = system: NO production in LPS-activated RAW 264.7 macrophages; test: NO production in LPS-activated RAW 264.7 macrophages (DAF-FM); format: cell-based; conditions: Mus musculus, RAW264.7; LPS 1 µg/mL activated RAW 264.7
Protocol: HCA7 colorectal cancer cell line was obtained from Sigma. […] Louis, MO) containing 10% heat-inactivated foetal bovine serum (HI-FBS) (Gibco, USA), 100 μg/mL streptomycin (Invitrogen, USA), and […] penicillin (Invitrogen, USA)[40]. HCA7 and RAW 264.7 cells were cultured in Dulbecco's minimal essential media (DMEM, Invitrogen) containing 10% HI-FBS, sodium pyruvate (1 mM), penicillin ([…]), and streptomycin (100 mg/m)[41]^,[42]. […] Molecular Probes, USA). Briefly, RAW 264.7 cells were cultured in black 96-well plates (200,000 cells/mL, 100 µl/well) for 24 h. […] The fluorescence intensity, which is directly proportional to NO levels, was quantified, as detailed in our previous study. IC50 values were calculated from the dose–response curves.

[4] = system: ROS production in LPS-activated RAW 264.7 macrophages; test: ROS production in LPS-activated RAW 264.7 macrophages (DCFH-DA); format: cell-based; conditions: LPS 1 µg/mL activated RAW 264.7
Protocol: HCA7 colorectal cancer cell line was obtained from Sigma. […] Louis, MO) containing 10% heat-inactivated foetal bovine serum (HI-FBS) (Gibco, USA), 100 μg/mL streptomycin (Invitrogen, USA), and […] penicillin (Invitrogen, USA)[40]. HCA7 and RAW 264.7 cells were cultured in Dulbecco's minimal essential media (DMEM, Invitrogen) containing 10% HI-FBS, sodium pyruvate (1 mM), penicillin ([…]), and streptomycin (100 mg/m)[41]^,[42]. […] The cells were cultured, incubated with the different test compounds, and activated with LPS (1 µg/mL) as detailed above. […] IC50 values were calculated from the dose–response curves.

HT29 cells = test: MTS cell viability assay HT29; format: cell-based; conditions: Homo sapiens, HT-29, 48 h, cell line moderately expressing COX-2
Protocol: Human colorectal cancer cell lines, HCT116 and HT29, and RAW 264.7 macrophages were obtained from ATCC (Manassas, VA). HCA7 colorectal cancer cell line was obtained from Sigma. HT29 and HCT116 cells were cultured in McCoy's 5 A medium (Sigma Aldrich, St. Louis, MO) containing 10% heat-inactivated foetal bovine serum (HI-FBS) (Gibco, USA), 100 μg/mL streptomycin (Invitrogen, USA), and […] penicillin (Invitrogen, USA)[40]. HCA7 and RAW 264.7 cells were cultured in Dulbecco's minimal essential media (DMEM, Invitrogen) containing 10% HI-FBS, sodium pyruvate (1 mM), penicillin ([…]), and streptomycin (100 mg/m)[41]^,[42].
Cells were cultured in 96‐well plates for 48 h and then treated with serum-free media containing different concentrations of the tested compounds (12.5, 25, 50, 100 and 150 µM). After 48 h., MTS reagent (Promega) was added as directed by the manufacturer, and then, the absorbance was measured at 495 nm. The absorbance is proportional to the number of viable cells. IC50 was calculated from the dose-response curves as described previously[45] using GraphPad Prism 8 software (GraphPad Software, San Diego, CA).

[5] = system: stomach ulceration in rats; test: Gastric acute ulcerogenic activity; conditions: rat, n = 5; for Ulcer Index (UI): UI = UN + US + UP×10^−1
human recombinant COX-2 = biological target: T1, human recombinant COX-2 (Homo sapiens, UniProt P35354); test: In vitro COX-2 inhibitory assay (colorimetric Cayman kit); conditions: for Selectivity Index (SI): COX-1 IC50/COX-2 IC50
T1 sequence (P35354 18-604): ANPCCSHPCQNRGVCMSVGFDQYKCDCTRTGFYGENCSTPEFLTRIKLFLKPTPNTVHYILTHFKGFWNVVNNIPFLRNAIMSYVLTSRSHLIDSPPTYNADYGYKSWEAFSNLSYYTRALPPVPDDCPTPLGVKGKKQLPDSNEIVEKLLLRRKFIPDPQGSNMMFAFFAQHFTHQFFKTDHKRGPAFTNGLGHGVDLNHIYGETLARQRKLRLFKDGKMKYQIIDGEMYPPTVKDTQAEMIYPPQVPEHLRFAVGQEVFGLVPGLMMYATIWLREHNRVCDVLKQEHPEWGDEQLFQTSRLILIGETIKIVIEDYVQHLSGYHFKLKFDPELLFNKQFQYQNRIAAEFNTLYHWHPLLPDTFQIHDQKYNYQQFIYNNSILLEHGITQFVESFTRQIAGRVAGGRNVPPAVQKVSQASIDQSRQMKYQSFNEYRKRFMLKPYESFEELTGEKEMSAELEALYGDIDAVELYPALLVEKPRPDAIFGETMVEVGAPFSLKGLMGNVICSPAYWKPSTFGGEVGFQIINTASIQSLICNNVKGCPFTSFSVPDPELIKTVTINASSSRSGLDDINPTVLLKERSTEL
Protocol: All the newly synthesised compounds were tested for their ability to inhibit COX-1 and COX-2 enzymes using a screening assay method.

NNC(=O)CSc1nc2ccccc2c(=O)n1NC(=O)Cc1ccccc1 [13b, N-(2-((2-hydrazinyl-2-oxoethyl)thio)-4-oxoquinazolin-3(4H)-yl)-2-phenylacetamide]
Mean oedema thickness 1h [1]: 2.26 ± 0.30 mm
Mean oedema thickness 2h [1]: 2.58 ± 0.41 mm
Mean oedema thickness 3h [1]: 2.67 ± 0.15 mm
Mean oedema thickness 4h [1]: 1.97 ± 0.29 mm
Mean oedema thickness 5h [1]: 1.61 ± 0.23 mm
Mean oedema thickness 24h [1]: 0.45 ± 0.14 mm
Mean oedema thickness 0h [1]: 0.00 ± 0.00 mm
Average oedema inhibition% [1]: 45.49%
Number of writhes [2]: no writhes
IC50 [3]: 9.76 ± 2.14 µM
IC50 ([4]; Mus musculus, RAW264.7): 24.4 ± 1.43 µM
IC50 (HT29 cells): > 150 µM
melting point: 210 to 215 °C
Average Ulcer number [5]: 0.4
Lesion Incidence (%) [5]: 40%
Number of rats with ulcer [5]: 2
Ulcer Index (UI) [5]: 4.8
IC50 (human recombinant COX-2): 0.045 µM
Selectivity Index (SI) (human recombinant COX-2): 373.77
Selectivity Index (SI) (human recombinant COX-2; listed as 13 b): 373

CC(C)Cc1ccc(C(C)C(=O)NN2C(=O)c3ccccc3N(C)C2c2ccc([N+](=O)[O-])cc2)cc1 (centres unmarked) [7c, 2-(4-Isobutylphenyl)-N-(1-methyl-2-(4-nitrophenyl)-4-oxo-1,4-dihydroquinazolin-3(2H)-yl) propenamide]
Mean oedema thickness 1h [1]: 1.79 ± 0.04 mm
Mean oedema thickness 2h [1]: 2.21 ± 0.35 mm
Mean oedema thickness 3h [1]: 1.90 ± 0.44 mm
Mean oedema thickness 4h [1]: 1.62 ± 0.26 mm
Mean oedema thickness 5h [1]: 1.55 ± 0.29 mm
Mean oedema thickness 24h [1]: 0.06 ± 0.04 mm
Mean oedema thickness 0h [1]: 0.00 ± 0.00 mm
Average oedema inhibition% [1]: 45.37%
Reduction in the pain response (writhes number) [2]: 78%
Number of writhes [2]: 11.33 writhes
IC50 [3]: 23.4 ± 1.29 µM
IC50 [4]: 9.23 ± 1.76 µM
IC50 ([4]; Mus musculus, RAW264.7): 9.22 µM
IC50 (HT29 cells): 13.4 ± 0.17 µM
melting point: 111 to 116 °C
Average Ulcer number [5]: 1
Lesion Incidence (%) [5]: 60%
Number of rats with ulcer [5]: 3
Ulcer Index (UI) [5]: 8
IC50 (human recombinant COX-2): 0.037 µM
Selectivity Index (SI) (human recombinant COX-2): 398.11
